Data: patent US5006555A, “Esters of 2-arylmethyl-1-naphthol derivatives as 5-lipoxygenase inhibitors” (E. I. Du Pont de Nemours and Company, priority 1990, dated 1991)

Tests used:
5-lipoxygenase = biological target: T1, 5-lipoxygenase (Rattus norvegicus, UniProt P12527); assay: 5-lipoxygenase inhibition in vitro, RBL-1 cell supernatant as enzyme source; format: biochemical; details: 10,000 xg supernatant of homogenized rat basophilic leukemia (RBL-1) cells, pH 7.0 phosphate buffer, 14C-arachidonic acid, 37°, two minutes
T1 construct: endogenous in cells; host or cells: RBL-1 (rat basophilic leukemia) cells, 10,000 xg supernatant of the homogenate
T1 sequence (P12527 1-673): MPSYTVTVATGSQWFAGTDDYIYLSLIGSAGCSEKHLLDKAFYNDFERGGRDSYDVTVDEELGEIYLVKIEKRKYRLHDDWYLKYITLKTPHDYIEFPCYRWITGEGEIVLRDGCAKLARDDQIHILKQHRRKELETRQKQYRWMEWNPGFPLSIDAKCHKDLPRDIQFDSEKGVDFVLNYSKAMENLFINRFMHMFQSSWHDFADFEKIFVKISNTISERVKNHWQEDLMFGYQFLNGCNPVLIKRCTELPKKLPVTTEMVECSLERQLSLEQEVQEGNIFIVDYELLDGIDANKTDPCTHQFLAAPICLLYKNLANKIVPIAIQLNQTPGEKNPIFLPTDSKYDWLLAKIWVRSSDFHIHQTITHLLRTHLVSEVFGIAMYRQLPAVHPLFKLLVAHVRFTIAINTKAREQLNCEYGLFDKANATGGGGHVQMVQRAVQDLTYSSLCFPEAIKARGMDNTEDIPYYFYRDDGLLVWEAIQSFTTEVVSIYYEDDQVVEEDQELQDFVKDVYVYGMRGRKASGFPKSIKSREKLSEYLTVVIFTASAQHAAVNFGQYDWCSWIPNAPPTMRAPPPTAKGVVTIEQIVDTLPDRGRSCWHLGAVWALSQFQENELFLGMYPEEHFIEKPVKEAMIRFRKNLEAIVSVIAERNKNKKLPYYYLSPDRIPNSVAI
Method: The test method is a modification of the procedure developed by Jakschik et al. (Prostaglandins (1978) 16. 733; Biochem. Biophys. Res. Commun. (1980) 95. 103; Biochem. Biophys, Res. Commun. (1981) 102 624).
The 10,000 xg supernatant from homogenized RBL-1 cells was incubated with test compound in a pH 7.0 phosphate buffer for about five minutes. ^14 C-arachidonic acid was added to initiate the reaction, which was allowed to continue at 37° for two minutes. The reaction was stopped by freezing in a dry ice/ethanol slurry and the 5-lipoxygenase products were separated from the substrate on silica gel columns. The amount of individual lipoxygenase products produced was determined and the percent inhibition calculated.

[1] = test system: arachidonic acid-induced ear edema; assay: arachidonic acid-induced ear edema in mice; format: in vivo; details: Mus musculus, 1 h; 100 μg/ear topical in acetone, CF1 mice, 1 mg arachidonic acid, one hour after challenge; >30% significant, 50% and above good to excellent
Method: This assay indicates a specific use in the treatment of skin diseases such as psoriasis. This assay also implies a reduction in leukotrienes caused by the compounds of the invention and indicates the use of these compounds in other diseases where the production of leukotrienes is involved in the pathological process. The assay is a modification of the procedure described by Young et al. (J. Invest. Dermatol. (1983) 80. 48).
Arachidonic acid (1 mg) was applied as an acetone solution to the inner surface of the pinna of CF1 mice. Test compound dissolved in acetone was applied to the ear just prior to the arachidonic acid challenge. One hour after challenge, 6 mm disks were removed from the ear with a biopsy punch and the weight determined. The results were determined as a percent inhibition of the swelling which occurred in the absence of the test compound.
Significant inhibitory activity is considered to be greater than 30% inhibition. 50% and above is considered to be good to excellent activity.

IC50 (5-lipoxygenase) [nM]	Structure (SMILES)	inhibition in vivo at 100 µg/ear [1] [%]
520	CN(C)CCCC(=O)Oc1c(Cc2ccccc2)ccc2ccccc12 [Example 4, 1-(4-demethylamine-butyryloxy)-2-phenylmethvlnaohthalene hvdrochloride]	44
62	CC(=O)Oc1c(Cc2cccc(F)c2)ccc2ccccc12 [Example 8]	–
90	COc1ccc(Cc2ccc3ccccc3c2OC(C)=O)cc1 [Example 10]	53
580	COc1ccc(Cc2ccc3ccccc3c2OC(C)=O)cc1OC [Example 11]	–
190	CC(=O)Oc1c(Cc2ccc3c(c2)OCO3)ccc2ccccc12 [Example 14]	–
70	CC(=O)Oc1c(Cc2cccs2)ccc2ccccc12 [Example 17]	52

Further lines, the compound ahead of its results:

Structure (SMILES)	IC50 (5-lipoxygenase) [nM]	inhibition in vivo at 100 µg/ear [1] [%]
CC(=O)Oc1c(Cc2ccccc2)ccc2ccccc12 [Example 1, 1-acetoxy-2-phenylmethylnaphthalene]	140	66
CCOC(=O)Oc1c(Cc2ccccc2)ccc2ccccc12 [Example 2, 1-ethoxycarbonyloxy-2-phenylmethyl naphthalene]	1200	50
O=C(O)CCC(=O)Oc1c(Cc2ccccc2)ccc2ccccc12 [Example 3, 1-(3-carboxvpropionvloxv)-2-phenylmethvlnaphthalene]	530	–
CC(=O)Oc1c(Cc2ccccc2F)ccc2ccccc12 [Example 7]	–	72
CC(=O)Oc1ccc(Cc2ccc3ccccc3c2OC(C)=O)cc1OC(C)=O [Example 12, 1-acetoxy-2-(3,4-diaacetoxyphenylmethyl)naphthalene]	1600	35
CC(=O)Oc1c(Cc2ccc(N(C)C)cc2)ccc2ccccc12 [Example 15, 1-acetoxy-2-(4-dimethylaminophenylmethyl)naphthalene]	810	49
